# Reference: patent US9078851B2, “Composition for preventing or treating a spinal cord injury” (UNIVERSITY-INDUSTRY COOPERATION GROUP OF KYUNG HEE, priority 2009, dated 2015)
# How the values were obtained:
# Type in all cases: in vivo, rat
# [1] = test system: spinal cord injury site tissue; experiment: Immunofluorescence staining of CSPG, CD206, GFAP, NF200 after spinal cord injury; details: tail vein injection
# Protocol: (§1) For the present experiment, male white mice (Sprague-Dawley 240-250 g, 7 weeks, 10 mice) were under general anesthetics by an intraperitoneal injection of Ketamin (80 mg/kg, Yuhan Corporation) and Rompun (7.4 mg/kg, Bayer Korea Corporation). Laminectomy was performed at spine T9-10 level to expose a spinal cord keeping intact dura. And then, rat was put on Spinal cord dropping device (NYU); spine processes at T8 and T11 sites were fixed by using a clamp, respectively; then, a rod (diameter 2 mm, weight 10 g) was dropped from 25 mm height vertical to dorsal part of spinal cord followed by suturing injury site muscle and skin. The rat of Sham-operated control group was performed only laminectomy at same area without damaging spinal cord injury (marked by ‘sham” in figures; hereinafter, the same as above).
# (§2) Substance P (marked by ‘SP’ in figures; hereinafter, the same as above) dissolved in saline of 5 nmol/kg concentration was injected through tail vein at immediately, 24 hours, and 48 hours after a spinal cord injury for experimental groups. At sham control group, same volume of saline (marked by ‘vehicle’ in figures; hereinafter, the same as above) without Substance P was injected at same time points. Operation were performed on an electric heating pad of 37° C., and then rat were transferred to cage after awake from the anesthetic. • (2) Preparation of Tissue
# Then, perfusion was performed by opening the of heart and pumping 200 ml of a physiological saline and 4% paraformaldehyde (Sigma) through right atrium of heart. Then, a segment of spinal cord with injury site was removed and put in 4% paraformaldehyde at 4° C. for 6 hours. Subsequently, spinal cords were washed with saline, and placed in 30% sucrose (Sigma) solution at 4° C. overnight. Next day, spinal cords were cut in a length of 1.5 cm in which the injured site is localized in epicenter followed by embedding in OCT compound (optimal cutting temperature compound, Sakura). The fixed tissues were cut in a thickness of 10 μm (Longitudinal section) or 20 μm (cross section) with Cryostat (Leica) and attached to slide. Finally, slides were stored at −80° C. • (3) Immunofluorescence Staining
# The selected sections for immunofluorescence staining were washed with saline for three times, and blocked with 10% horse serum (Jackson ImmunoResearch) for 1 hour at a room temperature. ED1 antibody (1:200, Milipore), a marker for activated microglia/macrophage, was treated and placed at 4° C. overnight. Next day, slides were washed with saline, and treated with a secondary antibody conjugated with Alexa Fluor 488 (1:400, Invitrogen) or cyanine 3 (1:500, Jackson ImmunoResearch) for 1 hour at room temperature. […]
# [2] = test system: myelin sheath of nerve cell; experiment: Immunofluorescence staining of myelin base protein (MBP) after spinal cord injury
# Protocol: as §1
# as §2, with “Tissue […]” for “Tissue”
# [3] = test system: activated microglia/macrophage; experiment: Immunofluorescence staining of ED1 at spinal cord injury site; details: 5 nmol/kg tail vein at immediately, 24 h, 48 h after spinal cord injury; 5 days after operation; vs control, rostal to caudal area
# Protocol: as §1
# as §2, with “Tissue […]” for “Tissue”
# [4] = two weeks after spinal cord injury
substance,measurement,setting,value
Substance P,GFAP-positive cells distribution,[1]; after spinal cord injury,excluded from CD206-positive spinal cord injury site
same,CD206 and ED1 double-positive cells,[1]; [4],gathered around an injury site
same,CSPG-positive signal around an injury site,[1]; [4],significantly decreased
same,neurofilament protein,"[1]; vs control, exposed to CD206-positive cell field",well preserved
same,inhibition of tissue lose,[2]; at 2 mm rostal and caudal from the center,at least 50%
same,MBP-positive sheath,"[2]; tail vein injection, after spinal cord injury",well preserved
same,activated microglia/macrophage expressing ED1 antigen,[3],significantly decreased
